# Results from patent publication US6512166B1, “Combinations of fungal cell wall degrading enzyme and fungal cell membrane affecting compound” (priority 1991, dated 2003).
# Tests used:
# [1] = Solubility, guidance for forming solutions
# From the text: Compositions for use in the systems herein are readily formulated by admixing the fungal cell wall degrading enzymes and the antifungal fungal cell membrane affecting compounds with non-toxic carriers appropriate for the particular use for a composition, e.g., agriculturally acceptable carriers for agricultural uses and pharmaceutically acceptable carriers for medicinal uses. They may be formulated as liquids (solutions or suspensions) or as solids. Since the fungal cell wall degrading enzymes need free water for activity, water must be present at the time of function. […] Water is a preferred vehicle where components are soluble in it. […] Organic solvents can also be used and may be required in some cases if a solution is desired. Guidance for forming solutions follows. […] Suspension can also be employed.
# B. cinerea strain 12 = test: Inhibition of spore germination, ELISA plate assay (Examples III-XVI, XVIII); type: cell-based, Botrytis cinerea; conditions: for ED50: alone or with enzyme at its ED10 concentration; for inhibition of spore germination: FIG. 7
# Method: (§1) The concentration where fungal cell wall degrading enzyme individually provides a specified percentage fungal inhibition or where antifungal fungal cell membrane affecting compound individually provides a specific percentage fungal inhibition can be determined as follows: Assays are performed under sterile conditions. Equal volumes of spore suspensions, 3× potato dextrose broth, and the test solution or suspension in 5 mM Tris-HCl (pH 6.0) or 5 mM potassium phosphate buffer (pH 6.7) are mixed. The control is the same as the test solution except for the control the antifungal agent is omitted. The assay mixtures (total volume 45 or 30 μl) are incubated on flat-bottomed ELISA plates, each containing 96 wells, with 2,000 to 3,000 spores per well, at 25° C. After 22 to 30 hours, the plates are placed under an inverted microscope. The percentage of conidia germinating is determined as the percentage of the first 100 spores randomly found in a well. In addition, the lengths of 20 germ tubes are measured and averaged. All experiments are performed twice, with three replicates for each treatment. The inhibition values obtained in the two experiments are combined and averaged, and standard deviations are calculated from the 6 data points. The values obtained for the control are taken as 0% inhibition and all other values are divided by the values obtained for the control and multiplied by 100% to obtain percent inhibition. Determination of concentration corresponding to a particular percent inhibition is carried out by subjecting dose-response curves to regression analysis by using a binomial regression of the third order, with R^2 ranging between 0.95 and 0.99.
# (§2) Assays were carried out by the procedure described in the summary of the invention section. Dose response curves were obtained by probit analysis of data collected from two separate experiments with each experiment involving three treatment replicates.
# Each of 8 antifungal fungal cell membrane affecting compounds were used in combination with each of 8 or 6 fungal cell wall degrading enzymes to provide 50% inhibition (ED50) of B. cinerea strain 12 spore germination. Each fungal cell wall degrading enzyme was used at a concentration giving 10% inhibition of spore germination when used alone in combination with an amount of antifungal fungal cell membrane affecting compound so the combination gave 50% inhibition of spore germination.
# (§3) Dose response curves were determined for each antifungal fungal cell membrane affecting compound and for each fungal cell wall degrading enzyme singly. Then each fungal cell wall degrading enzyme at a concentration giving 10% inhibition when used alone was combined with increasing amounts of antifungal fungal cell membrane affecting compound. Then the concentration of antifungal fungal cell membrane affecting compound causing the ED50 for each combination was calculated by probit analysis of data collected from two experiments with three treatment replicates for each experiment. Assays for inhibition of spore germination were carried out as described in the summary of invention section above.
# The relative level of synergism (RS below) for each combination was calculated by applying Limpel's formula: Ee=X+Y−(XY/100) as described in Richer, D. L, Pestic. Sci. 19, 309-315, 1987. In Limpel's formula, X and Y are the percentages of inhibition relative to each compound used alone and Ee is the expected effect for an additional (non-synergistic) effect. If the combination of the two agents produces an observed effect (Eo) greater than Ee, synergism exists, and as the difference between Eo and Ee increases, the level of synergism is greater. […]
# [2] = tested on: Fusarium oxysporum strain FOP1; test: Inhibition of spore germination, ELISA plate assay (Examples V-XIV, XVII); type: cell-based; conditions: for inhibition of spore germination: FIG. 8
# Method: as §1, §2, §3
# The relative level of synergism (RS below) for each combination was calculated by applying Limpel's formula: Ee=X+Y−(XY/100) as described in Richer, D. L, Pestic. Sci. 19, 309-315, 1987. In Limpel's formula, X and Y are the percentages of inhibition relative to each compound used alone and Ee is the expected effect for an additional (non-synergistic) effect. If the combination of the two agents produces an observed effect (Eo) greater than Ee, synergism exists, and as the difference between Eo and Ee increases, the level of synergism is greater. In this experiment, the X value (percentage inhibition by fungal cell wall degrading enzyme when used alone was chosen to be 10 (10% inhibition of spore germination when used alone) and the observed effect, Eo, was 50 (i.e., 50% inhibition of spore germination). The Y values were obtained from the determined concentrations of antifungal cell membrane affecting compound causing the ED50 for a combination and the dose response curves for the antifungal cell membrane affecting compound used alone—i.e., the Y value was the percent inhibition for the antifungal fungal cell membrane affecting compound when used alone for the concentration of antifungal fungal cell membrane affecting compound that was determined to cause the ED50 for the combination. Ee values were then calculated from Limpel's formula. […]
# B. cinerea = conditions: against B. cinerea, Watanabe et al; cited from earlier work
molecule,measurement,setting,value
"CN1C(=O)[C@]23CC4=CC=C[C@H](O)[C@H]4N2C(=O)[C@@]1(CO)SS3 [Gliotoxin, gliotoxin]",solubility (solvent in which the substance dissolves),[1],dissolves in methanol and ethanol
"CC(C)[C@@H]1NC(=O)[C@H](C)OC(=O)[C@@H](C(C)C)NC(=O)[C@@H](C(C)C)OC(=O)[C@H](C(C)C)NC(=O)[C@H](C)OC(=O)[C@@H](C(C)C)NC(=O)[C@@H](C(C)C)OC(=O)[C@H](C(C)C)NC(=O)[C@H](C)OC(=O)[C@@H](C(C)C)NC(=O)[C@@H](C(C)C)OC1=O [Valinomycin, valinomycin]",ED50,"B. cinerea strain 12; Table 16, concentration of valinomycin for 50% inhibition",7.3 (7.0-7.6) μg ml^−1
same,ED,"[2]; Table 24, concentration of valinomycin for 50% inhibition, alone or with enzyme at its ED10 concentration",8.5 (8.0-9.0) ng ml^−1
same,solubility (solvent in which the substance dissolves),[1],dissolve in acetone
CC(C)OP(=O)(OC(C)C)SCc1ccccc1 [kitazin P],Minimum inhibitory concentration,B. cinerea,500 µg/mL
NC(=O)OC[C@H](O)[C@@H](O)[C@H](N)C(=O)N[C@H](C(=O)O)[C@H]1O[C@@H](n2cc(CO)c(=O)[nH]c2=O)[C@H](O)[C@@H]1O [polyoxin B],Minimum inhibitory concentration,B. cinerea,12.5 µg/mL
gramicidin,ED50,"B. cinerea strain 12; Table 15, concentration of gramicidin for 50% inhibition",>300 µg/mL
same,inhibition of spore germination,B. cinerea strain 12; gramicidin alone,20-25%
same,inhibition of spore germination,"B. cinerea strain 12; gramicidin with endochitinase from G. virens strain 41 (2.5, 5 μg/ml)",about 100%
same,ED50,"[2]; Table 23, concentration of gramicidin for 50% inhibition, alone or with enzyme at its ED10 concentration",>300 ng/mL
same,inhibition of spore germination,[2]; gramicidin alone,20-25%
same,inhibition of spore germination,"[2]; gramicidin with glucosidase from T. harzianum strain P1 (10, 25 μg/ml)",about 100%
same,solubility (solvent in which the substance dissolves),[1],dissolves in ethanol
trichorzianine A1 [Trich. A1],ED50,"B. cinerea strain 12; Table 18, concentration of trichorzianine A1 for 50% inhibition",90.5 (85-95) μg ml^−1
same,ED50,"[2]; Table 26, concentration of trichorzianine A1 for 50% inhibition, alone or with enzyme at its ED10 concentration",87 (83-91) ng ml^−1
same,solubility (solvent in which the substance dissolves),[1],readily dissolved in water
trichorzianine B1 [Trich. B1],ED50,"B. cinerea strain 12; Table 19, concentration of trichorzianine B1 for 50% inhibition",95.2 (92-99) μg ml^−1
same,ED50,"[2]; Table 27, concentration of trichorzianine B1 for 50% inhibition, alone or with enzyme at its ED10 concentration",95.5 (92-99) ng ml^−1
same,solubility (solvent in which the substance dissolves),[1],readily dissolved in water
